Series [1] can be described thus: Transferability into brain and clearance, Examples II-22 to II-23. In kind it is in vivo, male Wistar rats. As to conditions: rats, intravenous injection, Table 2-7.
Method: 0.05 mL each of the prepared sample solutions was injected under thiopental anesthesia into the tail vein of the respective Wistar rat (7-week old). The rats were sacrificed by bleeding from abdominal artery, and brains were removed and subjected to measurement of mass of brains and further subjected to measurement of radioactivity (hereinafter referred to as A in this Example) with a single channel analyzer (detector type SP-20 manufactured by OHYO KOKEN KOGYO Co., Ltd.) 2, 5, 30, and 60 minutes after the injection. Further, the radioactivity level of the rest of the whole body was measured in the same manner as above (hereinafter referred to as B in this Example). Using these measurement results, radioactive distribution per unit weight of brain (% ID/g) at the respective time points were calculated in accordance with the following formula (2-5).
(§1) Three animals were used for the experiment at the respective time points.
In series [2] the target is T1, intracerebral amyloid (aggregated Aβ1-40 injected into amygdaloid nucleus) (Homo sapiens, UniProt P05067).
T1 construct: Aβ1-40 (Peptide Institute, INC.) was dissolved in phosphate buffer (pH 7.4); purchased Peptide Institute, INC
The series is described as follows: Ex vivo autoradiogram of 123I-IMPY using rats of amyloid injected model, Comparative Example II-6. In kind it is in vivo, male Wistar rat. As to conditions: brain slice 60 minutes after tail vein injection.
Method: (§2) (1) Aβ1-40 (manufactured by Peptide Institute, INC.) was dissolved in phosphate buffer (pH 7.4) and shaken at 37° C. for 72 hours, to obtain 1 mg/mL of a suspension of aggregated Aβ (hereinafter referred to as amyloid suspension in this Example).
(§3) (2) 2.5 μL (corresponding to 25 μg) of the amyloid suspension was injected into an amygdaloid nucleus on one side of a male Wistar rat (7-week old). As a control, 2.5 μL of a phosphate buffered physiological saline solution (pH 7.4) was injected into an amygdaloid nucleus on the other side of the rat. The rats were examined 1 day after the injection of the amyloid suspension and the phosphate buffered physiological saline solution (pH 7.4).
(§4) This solution was injected under thiopental anesthesia into the rat through the tail vein (dosage: 0.5 mL, dosed radioactivity: 14.5 MBq equivalent).
(§5) (4) Brain was removed 60 minutes after the injection to prepare a brain slice of 10 μm in thickness with a microtome (type: CM3050S, manufactured by LEICA). The brain slice was exposed to an imaging plate for 20 hours, and then image analysis was carried out by use of a Bio-imaging Analyzer (type: BAS-2500; manufactured by FUJIFILM Corporation).

Series [3] deals with intracerebral amyloid (aggregated Aβ1-40 injected into amygdaloid nucleus). Described as above. As to conditions: autoradiogram, 60 minutes after tail vein injection. In kind it is in vivo, male Wistar rat.
Method: as §2, §3, §4, §5
Series [4] is described as follows: Partition coefficient based on the octanol extraction method, Examples II-8 to II-9. In kind it is physicochemical. As to conditions: octanol / 10 mmol/L phosphate buffer (pH 7.4); Table 2-4.
Method: To 2 mL of octanol, 10 μL each of the prepared sample solutions was added, 2 mL of 10 mmol/L phosphate buffer (pH 7.4) was added, followed by stirring for 30 seconds. After the mixture was centrifuged with a low-speed centrifuge (2000 rpm×60 min.), the octanol layer and the water layer were sampled each in an amount of 1 mL, and subjected to measurement of radioactivity count with an autowell gamma system (Type: ARC-301B, manufactured by Aloka). Using the obtained radioactivity count, log Poctanol was calculated in accordance with the equation (2-2).
The nature of series [5]: Transferability into brain and clearance (2), Example I-30. The note with it: rats, intravenous injection, Table 1-10. In kind it is in vivo, male Wistar rats.
Method: 0.05 mL each of these solutions was injected under thiopental anesthesia into the tail vein of respective Wistar rats (7-week old). The rats were sacrificed by bleeding from abdominal artery, and brains were removed and subjected to measurement of mass of brains and further subjected to measurement of radioactivity (hereinafter referred to as A in this Example) with a single channel analyzer (detector type: SP-20 manufactured by OHYO KOKEN KOGYO Co., Ltd.) 2, 5, 30 and 60 minutes after the injection. Also, radioactivity (hereinafter referred to as B in this Example) of the rest of the whole body was measured in the same manner as above. Using these measurement results, radioactive distribution per unit weight of brain (% ID/g) at the respective time points were calculated in accordance with the following formula (1-7).
Three animals were used for experiment at the respective time points.
A short description of series [6]: Partition coefficient based on the octanol extraction method, Examples I-13 to I-14. As to conditions: octanol / 10 mmol/L phosphate buffer (pH 7.4); Table 1-4. In kind it is physicochemical.
Method: After the mixture was centrifuged with a low-speed centrifuge (2000 rpm×60 min.), the octanol layer and the water layer were sampled each in an amount of 1 mL, and subjected to measurement of radioactivity count with an autowell gamma system (manufactured by Aloka, Type: ARC-301B). Using the obtained radioactivity count, log Poctanol was calculated in accordance with the equation (1-2).
A short description of series [7]: Partition coefficient based on the octanol extraction method, Example I-29. The note with it: octanol / 10 mmol/L phosphate buffer (pH 7.4); Table I-9. In kind it is physicochemical. How it is done:
To 2 mL of octanol, 10 μL each of the prepared sample solutions was added, and 2 mL of a 10 mmol/L phosphate buffer (pH 7.4) was further added, followed by stirring for 30 seconds.

Series [8] in a line: Transferability into brain and clearance, Examples II-10 to II-11. In kind it is in vivo, male Wistar rats. The note with it: rats, intravenous injection, Table 2-5.
Method: 0.05 mL each of the prepared sample solutions was injected under thiopental anesthesia into the tail vein of the rats. The rats were sacrificed by bleeding from abdominal artery, and brains were removed and subjected to measurement of mass of brains and further subjected to measurement of radioactivity (hereinafter referred to as A in this Example) with a single channel analyzer (detector type SP-20 manufactured by OHYO KOKEN KOGYO Co., Ltd.) 2, 5, 30, and 60 minutes after the injection. Further, the radioactivity level of the rest of the whole body was measured in the same manner as above (hereinafter referred to as B in this Example). Using these measurement results, radioactive distribution per unit weight of brain (% ID/g) at the respective time points were calculated in accordance with the following formula (2-3).
as §1
Series [9] in a line: Partition coefficient based on the octanol extraction method, Examples II-20 to II-21. In kind it is physicochemical. The note with it: octanol / 10 mmol/L phosphate buffer (pH 7.4); Table 2-6.
Method: To 2 mL of octanol, 10 μL each of the prepared sample solution was added, and 2 mL of 10 mmol/L phosphate buffer (pH 7.4) was further added, followed by stirring for 30 seconds. After the mixture was centrifuged with a low-speed centrifuge (2000 rpm×60 min.), the octanol layer and the water layer were sampled each in an amount of 1 mL, and subjected to measurement of radioactivity count with an autowell gamma system (Type: ARC-301B, manufactured by Aloka). Using the obtained radioactivity count, log Poctanol was calculated in accordance with the equation (2-4).
Series [10] in a line: Transferability into brain and clearance, Examples I-20 to I-21. In kind it is in vivo, male Wistar rats. The note with it: rats, intravenous injection, Table 1-7. The text has this: Three animals were used for Experiment I-20 and Comparative Experiment I-9, and two animals were used for Experiment I-21 at the respective time points.

T1 sequence (P05067 672-711): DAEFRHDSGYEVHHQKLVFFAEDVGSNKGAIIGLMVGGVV

`CN(C)c1ccc(-c2cn3cc([123I])ccc3n2)cc1` [[^123I]-IMPY, reference compound]: the “Radioactive distribution in brain per unit weight, After 2 min.” value in [1] (2 min.) is reported as 1.19 % ID/g; in [5] (2 min.), 1.19 % ID/g; in [8] (2 min.), 1.19 % ID/g; in series [10] (2 min.), 1.02 % ID/g. Moreover, the “Radioactive distribution in brain per unit weight, After 5 min.” value was found to be 0.97 % ID/g in [1] (5 min.), 0.97 % ID/g in [5] (5 min.), 0.97 % ID/g in [8] (5 min.) and 0.99 % ID/g in [10] (5 min.). Further, the “Radioactive distribution in brain per unit weight, After 30 min.” value in series [1] (30 min.) is 0.23 % ID/g; in [5] (30 min.) it was 0.23 % ID/g; in series [8] (30 min.), 0.23 % ID/g; in series [10] (30 min.), 0.20 % ID/g. Further, the “Radioactive distribution in brain per unit weight, After 60 min.” value was 0.09 % ID/g in [1] (60 min.), 0.09 % ID/g in [5] (60 min.), 0.09 % ID/g in series [8] (60 min.) and 0.08 % ID/g in [10] (60 min.). For the same compound, in series [2], the “accumulation of radioactivity in amygdaloid nucleus on the side to which the amyloid suspension was injected” value is “marked accumulation of radioactivity”. Also, the “accumulation of radioactivity where amyloid was not injected (white matter)” value in series [3] is “non-specific accumulation was observed in white matter”. Moreover, the logPoctanol value in series [4] was determined as 1.9; in [6], 2.1; in series [7], 2.1; in series [9], 2.1.

Values taken from patent US8506930B2, “Compounds having affinity for amyloid” (Nihon Medi-Physics Co., Ltd., priority 2006, dated 2013).
